Test results taken from ChEMBL document CHEMBL3860050, “Triterpenoids from Momordica balsamina: Reversal of ABCB1-mediated multidrug resistance” (Bioorg Med Chem, 2016).

Assays:
[1] = molecular target: T1, ATP-dependent translocase ABCB1 (Homo sapiens, UniProt P08183); assay: Inhibition of MDR1-mediated efflux-pump activity in mouse L5178Y cells expressing human MDR1 assessed as side scattered light at 2 uM preincubated for 10 mins followed by rhodamine-123 addition measured after 20 mins by flow cytometry (reference value: 194.6 to 286.4); type: cell-based
[2] = Antiproliferative activity against mouse L5178Y cells expressing human MDR1 measured after 72 hrs by MTT assay; type: functional, cell-based
[3] = molecular target: T1, ATP-dependent translocase ABCB1; assay: Inhibition of MDR1-mediated efflux-pump activity in mouse L5178Y cells expressing human MDR1 assessed as mean fluorescence intensity at 2 uM preincubated for 10 mins followed by rhodamine-123 addition measured after 20 mins by flow cytometry (reference value: 7.1 to 18.6); type: cell-based
[4] = molecular target: T1, ATP-dependent translocase ABCB1; assay: Inhibition of MDR1-mediated efflux-pump activity in mouse L5178Y cells expressing human MDR1 assessed as forward scattered light at 2 uM preincubated for 10 mins followed by rhodamine-123 addition measured after 20 mins by flow cytometry (reference value: 455.7 to 509.9); type: cell-based
[5] = molecular target: T1, ATP-dependent translocase ABCB1; assay: Inhibition of MDR1-mediated efflux-pump activity in mouse L5178Y cells expressing human MDR1 assessed as side scattered light at 20 uM preincubated for 10 mins followed by rhodamine-123 addition measured after 20 mins by flow cytometry (reference value: 194.6 to 286.4); type: cell-based
[6] = molecular target: T1, ATP-dependent translocase ABCB1; assay: Inhibition of MDR1-mediated efflux-pump activity in mouse L5178Y cells expressing human MDR1 assessed as fluorescence activity ratio at 20 uM preincubated for 10 mins followed by rhodamine-123 addition measured after 20 mins by flow cytometry; type: cell-based
[7] = molecular target: T1, ATP-dependent translocase ABCB1; assay: Inhibition of MDR1-mediated efflux-pump activity in mouse L5178Y cells expressing human MDR1 assessed as fluorescence activity ratio at 2 uM preincubated for 10 mins followed by rhodamine-123 addition measured after 20 mins by flow cytometry; type: cell-based
[8] = molecular target: T1, ATP-dependent translocase ABCB1; assay: Inhibition of MDR1-mediated efflux-pump activity in mouse L5178Y cells expressing human MDR1 assessed as forward scattered light at 20 uM preincubated for 10 mins followed by rhodamine-123 addition measured after 20 mins by flow cytometry (reference value: 455.7 to 509.9); type: cell-based
[9] = Antiproliferative activity against mouse L5178Y cells measured after 72 hrs by MTT assay; type: functional, cell-based
[10] = molecular target: T1, ATP-dependent translocase ABCB1; assay: Inhibition of MDR1-mediated efflux-pump activity in mouse L5178Y cells expressing human MDR1 assessed as mean fluorescence intensity at 20 uM preincubated for 10 mins followed by rhodamine-123 addition measured after 20 mins by flow cytometry (reference value: 7.1 to 18.6); type: cell-based

T1 sequence (P08183 whole entry): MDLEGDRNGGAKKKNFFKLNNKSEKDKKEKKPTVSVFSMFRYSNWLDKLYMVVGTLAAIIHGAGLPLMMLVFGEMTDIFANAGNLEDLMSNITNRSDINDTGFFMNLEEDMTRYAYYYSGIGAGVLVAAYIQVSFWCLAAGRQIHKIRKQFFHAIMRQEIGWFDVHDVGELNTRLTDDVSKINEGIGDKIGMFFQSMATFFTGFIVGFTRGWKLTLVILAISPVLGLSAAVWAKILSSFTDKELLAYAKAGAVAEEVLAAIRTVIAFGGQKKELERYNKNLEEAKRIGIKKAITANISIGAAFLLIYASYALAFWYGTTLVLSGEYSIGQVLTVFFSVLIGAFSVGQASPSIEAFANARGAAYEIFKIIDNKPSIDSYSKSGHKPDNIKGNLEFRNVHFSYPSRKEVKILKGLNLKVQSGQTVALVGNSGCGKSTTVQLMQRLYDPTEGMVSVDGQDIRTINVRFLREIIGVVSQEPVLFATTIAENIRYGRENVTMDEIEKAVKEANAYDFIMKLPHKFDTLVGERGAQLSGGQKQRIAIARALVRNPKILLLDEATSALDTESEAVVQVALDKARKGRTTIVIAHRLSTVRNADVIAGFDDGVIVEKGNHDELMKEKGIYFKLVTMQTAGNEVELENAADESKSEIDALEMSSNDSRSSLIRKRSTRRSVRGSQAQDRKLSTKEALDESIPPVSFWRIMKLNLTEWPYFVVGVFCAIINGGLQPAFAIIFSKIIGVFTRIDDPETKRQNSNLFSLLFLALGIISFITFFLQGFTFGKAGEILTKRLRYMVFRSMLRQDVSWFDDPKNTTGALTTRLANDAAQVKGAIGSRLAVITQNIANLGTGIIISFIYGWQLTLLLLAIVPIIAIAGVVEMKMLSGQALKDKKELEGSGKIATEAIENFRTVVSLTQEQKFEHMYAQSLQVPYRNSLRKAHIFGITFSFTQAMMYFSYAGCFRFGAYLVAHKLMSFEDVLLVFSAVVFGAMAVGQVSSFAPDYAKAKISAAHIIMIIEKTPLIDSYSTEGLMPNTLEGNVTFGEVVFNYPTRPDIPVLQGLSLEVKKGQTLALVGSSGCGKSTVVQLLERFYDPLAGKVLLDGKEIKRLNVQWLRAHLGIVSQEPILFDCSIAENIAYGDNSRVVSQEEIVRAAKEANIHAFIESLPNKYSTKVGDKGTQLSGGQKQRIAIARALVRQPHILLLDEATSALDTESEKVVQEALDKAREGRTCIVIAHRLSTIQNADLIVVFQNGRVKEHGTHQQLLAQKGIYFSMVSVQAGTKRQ

Row | Compound | Activity [1] | IC50 [2] | Flu intensity [3] | Activity [4] | Activity [5] | Ratio [6] | Ratio [7] | Activity [8] | IC50 [9] | Flu intensity [10]
1 | CO[C@H]1C=C2[C@@H](CC[C@H](O)C2(C)C)[C@]2(C)CC[C@]3(C)[C@@H]([C@H](C)C[C@H](C=C(C)C)OC(=O)CCC(=O)O)CC[C@@]3(C)[C@H]12 | 184.1 | 40.6 µM | 7.5 | 545.2 | 185.6 | 4.2 | 1.1 | 540.1 | 20.8 µM | 28
2 | CC(C)=C[C@H](O)C[C@@H](C)[C@H]1CC[C@@]2(C)[C@@H]3C(O[C@H]4O[C@@H](CO)[C@H](O)[C@@H](O)[C@@H]4O)C=C4[C@@H](CC[C@H](O)C4(C)C)[C@]3(C)CC[C@]12C (stereo partly specified) | 235.6 | 54.2 µM | 10.7 | 557.9 | 236.9 | 2.3 | 1 | 573 | 19.2 µM | 23.6
3 | CC(C)=C[C@H](O)C[C@@H](C)[C@H]1CC[C@@]2(C)[C@@H]3[C@@H](O[C@H]4O[C@@H](CO)[C@H](O)[C@H](O)[C@@H]4O)C=C4[C@@H](CC[C@H](O)C4(C)C)[C@]3(C)CC[C@]12C | 267.4 | 42.6 µM | 11.5 | 443.8 | 277.2 | 37.2 | 0.9 | 457.9 | 18.7 µM | 487.1
4 | CO[C@H]1C=C2[C@@H](CC[C@H](OC(=O)c3ccccc3)C2(C)C)[C@]2(C)CC[C@]3(C)[C@@H]([C@H](C)C/C=C/C(C)(C)O)CC[C@@]3(C)[C@H]12 | 233.1 | 130 µM | 17.9 | 454.2 | 235.1 | 7.8 | 1 | 444.8 | 108 µM | 140
5 | CO[C@H]1C=C2[C@@H](CC[C@H](OC(=O)CCC(=O)O)C2(C)C)[C@]2(C)CC[C@]3(C)[C@@H]([C@H](C)C[C@H](C=C(C)C)OC(=O)CCC(=O)O)CC[C@@]3(C)[C@H]12 | 184.6 | 46.9 µM | 8.2 | 545.8 | 187 | 5.9 | 1.3 | 546.7 | 16.9 µM | 39.5
6 | C=C(C)[C@@H](O)[C@H](O)C[C@@H](C)[C@H]1CC[C@@]2(C)[C@@H]3[C@@H](O)C=C4[C@@H](CC[C@H](O)[C@]4(C)CO)[C@]3(C)CC[C@]12C [BALSAMINAPENTAOL A] | 254.7 | 29.3 µM | 8.8 | 427.2 | 252 | 2.9 | 0.7 | 429 | 13.7 µM | 38.2
7 | CC(=O)C[C@@H](C)[C@H]1CC[C@@]2(C)[C@@H]3C(=O)C=C4[C@@H](CC[C@H](O)[C@]4(C)CO)[C@]3(C)CC[C@]12C [BALSAMINOL D] | 254.3 | 67.1 µM | 10.3 | 439.9 | 256.5 | 1.9 | 1 | 434.2 | 27.8 µM | 25.9
8 | CC(C)=C[C@H](O)C[C@@H](C)[C@H]1CC[C@@]2(C)[C@@H]3[C@@H](O)C=C4[C@@H](CC[C@H](O)C4(C)C)[C@]3(C)CC[C@]12C [BALSAMINOL F] | 202.1 | 20.8 µM | 20.1 | 490.7 | – | – | 2.6 | – | 8.3 µM | –
9 | C[C@H](C/C=C/C(C)(C)O)[C@H]1CC[C@@]2(C)[C@@H]3[C@@H](O)C=C4[C@@H](CC[C@H](O)C4(C)C)[C@]3(C)C[C@@H](O)[C@]12C [CUCURBALSAMINOL A] | 254.7 | 63.4 µM | 8.8 | 427.2 | 252 | 2.9 | 0.7 | 429 | 48.2 µM | 38.2
10 | CCCC(=O)O[C@H]1CC[C@@H]2C(=C[C@H](OC)[C@@H]3[C@@]2(C)CC[C@]2(C)[C@@H]([C@H](C)C[C@H](C=C(C)C)OC(=O)CCC)CC[C@@]32C)C1(C)C [KARAVOATE F] | 218.3 | > 133 µM | 10.8 | 542.6 | 218.7 | 1.6 | 1.4 | 541 | 93.2 µM | 12.3
11 | CO[C@H]1C=C2[C@@H](CC[C@H](OC(=O)c3ccccc3)C2(C)C)[C@]2(C)CC[C@]3(C)[C@@H]([C@H](C)C[C@H](C=C(C)C)OC(=O)c4ccccc4)CC[C@@]3(C)[C@H]12 [KARAVOATE H] | 200.4 | 96.4 µM | 9 | 504.9 | 215.4 | 1.3 | 1.2 | 519.8 | > 133 µM | 10.4
12 | CO[C@H]1C=C2[C@@H](CC[C@H](O)C2(C)C)[C@]2(C)CC[C@]3(C)[C@@H]([C@H](C)C[C@H](C=C(C)C)OC(=O)c4ccc([N+](=O)[O-])cc4)CC[C@@]3(C)[C@H]12 [KARAVOATE I] | 184.1 | 60.4 µM | 14.3 | 537.3 | 182.9 | 3.9 | 2.1 | 534.1 | 29 µM | 25.9
13 | CO[C@H]1C=C2[C@@H](CC[C@H](OC(=O)c3ccc([N+](=O)[O-])cc3)C2(C)C)[C@]2(C)CC[C@]3(C)[C@@H]([C@H](C)C[C@H](C=C(C)C)OC(=O)c4ccc([N+](=O)[O-])cc4)CC[C@@]3(C)[C@H]12 [KARAVOATE J] | 186.3 | 87.9 µM | 9.5 | 543.4 | 184.1 | 2.1 | 1.4 | 537.3 | 59.4 µM | 14.3
14 | CO[C@H]1C=C2[C@@H](CC[C@H](O)C2(C)C)[C@]2(C)CC[C@]3(C)[C@@H]([C@H](C)C[C@H](C=C(C)C)OC(=O)c4ccc(Cl)cc4)CC[C@@]3(C)[C@H]12 [KARAVOATE K] | 207 | 93.2 µM | 10.7 | 517.9 | 210.8 | 1.6 | 1.4 | 511.1 | 63.4 µM | 12.2
15 | CO[C@H]1C=C2[C@@H](CC[C@H](OC(=O)c3ccc(Cl)cc3)C2(C)C)[C@]2(C)CC[C@]3(C)[C@@H]([C@H](C)C[C@H](C=C(C)C)OC(=O)c4ccc(Cl)cc4)CC[C@@]3(C)[C@H]12 [KARAVOATE L] | 206.4 | > 133 µM | 8.1 | 504.6 | 202.4 | 1.2 | 1 | 512.2 | > 133 µM | 9
16 | COc1ccc(C(=O)O[C@@H](C=C(C)C)C[C@@H](C)[C@H]2CC[C@@]3(C)[C@@H]4[C@@H](OC)C=C5[C@@H](CC[C@H](O)C5(C)C)[C@]4(C)CC[C@]23C)cc1 [KARAVOATE M] | 192.3 | 87.5 µM | 12.3 | 526 | 181.8 | 1.7 | 1.8 | 531.9 | 59.4 µM | 11.4
17 | COc1ccc(C(=O)O[C@H]2CC[C@@H]3C(=C[C@H](OC)[C@@H]4[C@@]3(C)CC[C@]3(C)[C@@H]([C@H](C)C[C@H](C=C(C)C)OC(=O)c5ccc(OC)cc5)CC[C@@]43C)C2(C)C)cc1 [KARAVOATE N] | 184.1 | > 133 µM | 6.3 | 528.1 | 186.7 | 1.4 | 0.9 | 548.9 | 74.6 µM | 9.7
